Measured values taken from paper PMC8214221, “Sequence determinants in the cathelicidin LL-37 that promote inflammation via presentation of RNA to scavenger receptors” (The Journal of Biological Chemistry, 2021).
Residues, ends and D or L forms follow the SMILES beside them.

Columns and labels:
[1] = test system: normal human epidermal keratinocytes (NHEKs); assay: LDH release cytotoxicity assay in keratinocytes; format: cell-based; conditions: minimal concentration giving 50% LDH release by NHEKs
How it was run: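 Normal human epidermal keratinocytes were exposed to LL-34 parent and alanine-substituted peptides. Cytotoxicity was read as LDH release in fresh culture supernatants after treatment, using a commercial kit, and reported as the minimal concentration showing toxicity.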

[2] = test system: NHEKs, IL-6 secretion in response to U1 dsRNA; assay: IL-6 secretion ELISA in NHEKs; format: cell-based, human; conditions: U1 dsRNA 2.5 μg/ml + peptide 2 μM, 18 h, n = 3
How it was run: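 NHEKs (also HDMECs) exposed to LL-34 parent or alanine-scan peptides at 2 μM, alone or with U1 dsRNA (2.5 μg/ml), for 18 h. Secreted IL-6 in supernatant quantified by sandwich ELISA (n = 3).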

[3] = test system: NHEKs, IL6, IFNB1, TSLP, CXCL10 mRNA; assay: qRT-PCR gene expression in NHEKs; format: cell-based, human; conditions: 18 h / 8 h (Fig. 1 legend), n = 3; for Gene expression of IL6, IFNB1, and CXCL10, cotreatment with U1 dsRNA: U1 dsRNA 2.5 μg/ml + peptide 2 μM; for Gene expression of TSLP, peptide alone / Basal expression of IL6, IFNB1, and CXCL10, peptide alone: peptide 2 μM alone; for Gene expression of TSLP, peptide alone: GAPDH reference
Procedure: Protein levels of human IL-6 were analyzed from cell supernatant with ELISA (n = 3). Corresponding MIC values of LL-34 peptides L1A–R34A against Staphylococcus aureus USA300 are shown in the heat map. B, human dermal endothelial cells (HDMECs) were treated with either U1 dsRNA (2.5 μg/ml) or a combination of U1 dsRNA (2.5 μg/ml) and LL-34 peptides (Pep 1–Pep 34 and Pep–parent LL-34) at 2 μM for 18 h. IL-6 ELISA results are shown (n = 3). Green bars denote loss of IL-6 protein secretion compared with parent control shown in red. C, helical wheel plot for LL-34. Amino acids with green circles denote specific residues where replacement with an alanine caused the loss of IL-6 secretion compared with parent LL-34 peptide in NHEKs cotreated with U1 dsRNA. D, in the helical wheel plot for LL-34, circled green amino acids indicate that a substitution caused a loss of vetting in HDMEC. E–H, NHEKs were treated with LL-34-parent peptide (LL-34-P), LL-34-F5A, LL-34-I24A, LL-34-F27A, and LL-34-L31A at 2 μM, either individually or in combination with U1 dsRNA (2.5 μg/ml) for 8 h. Gene expression of IL-6, IFNB1, TSLP, and CXCL10 was assessed with qRT-PCR. GAPDH was used as a reference gene (n = 3) (∗p < 0.05; ∗∗∗∗p < 0.0001). One way-ANOVA was used. IL-6, interleukin 6; LL-34, 34-amino acid peptide; MIC, minimum inhibitory concentration, ns, not significant.
(§1) We further looked at mRNA abundance by quantitative RT-PCR (qRT-PCR) to evaluate gene expression for type 1 interferon IFNB1, chemokine CXCL10, and cytokines TSLP and IL6 in NHEKs treated with selected LL-34 parent, LL-34—F5A, I24A, F27A, and L31A—peptides either alone or in combination with U1 dsRNA for 18 h (Fig. 1, E–H).
RNA extracted from cells (Pure Link RNA Isolation Kit; Life Technologies) was quantified on the Nanodrop 2000/200C Spectrophotometer (Thermo Fisher Scientific). About 500 ng of purified RNA was used to synthesize complementary DNA with iScript cDNA Synthesis Kit (Bio-Rad). Predeveloped Taqman (Thermo Fisher Scientific) gene expression assays were used to evaluate mRNA transcript levels. Taqman cycling conditions were used as previously described ([9], [45]). All experiments were performed on a CFX96 system (Bio-Rad). Fold change relative to GAPDH was calculated using the Livak ΔΔCt method ([46]).

[4] = test system: S. aureus strain USA300 and SA112, GAS; assay: Bacterial growth inhibition (OD600), Gram-positive strains; format: cell-based, Staphylococcus aureus; group A Streptococcus; conditions: 0-50 µM overnight, OD 600, n = 3, S. aureus USA300, SA113 (SA112 in text)
Procedure: as §1
(§2) Methicillin-resistant S. aureus USA300 and methicillin-sensitive S. aureus SA113 (American Type Culture Collection 35556) were cultured in 3% tryptic soy broth overnight at 37 °C with shaking at 250 rpm. GAS M49 strain NZ131 was cultured in Todd Hewitt broth supplemented with 1% yeast extract overnight at 37 °C without shaking. E. coli R1 strain RS218 was cultured in LB broth overnight at 37 °C with shaking at 250 rpm. MIC values were determined using a round-bottom 96-well microdilution method with RPMI cell culture media (as a source of Ca^2+ and Mg^2+) supplemented with tryptic soy broth, Todd Hewitt broth/yeast extract, or LB to facilitate growth of the respective bacterial strains. Overnight bacterial cultures were subcultured into fresh broth and grown to midlate log phase indicated by an absorbance at 600 nm value between 0.8 and 1.0 for each bacterial strain. The absorbance was then normalized to provide a concentration of 1 × 10^7 colony-forming units/ml in RPMI medium. The LL-34 parent and alanine scan mutants were serially diluted into the 96-well microtiter plates containing prewarmed RPMI bacterial growth medium. A 10 μl aliquot of the midlate log phase bacteria was inoculated into the 96-well microtiter plates that contained 95 μl of RPMI medium with or without the LL-34 peptide dilutions and incubated for 16 to 18 h at […] with shaking at 200 rpm. Inhibition of growth was determined by measuring the absorbance at 600 nm readings of each well using a microplate reader (Infinite M200 Pro; Tecan). The MIC of each bacterial strain was determined by the lowest peptide concentration that inhibited more than 80% bacterial growth.
(§3) (A) NHEKs and HDMECs (B) were treated with LL34- parent peptide and all the 34 alanine substituted peptides (Pep L1A-Pep R34A) and LL37 at 2 µM for 16 h. IL-6 protein secretion was assessed with ELISA (n=3) (C-F) LL34-Parent, LL34 F5A, LL34 I24A, LL34 F27A, and LL34 L31A peptides were incubated with S. aureus USA 300, S. aureus SA113, Group A Streptococcus (GAS) and E. coli at increasing concentrations (0-50 µM) overnight, and bacterial culture growth was assayed as absorbance at OD 600 (n=3).

Escherichia coli = assay: Bacterial growth inhibition (OD600), E. coli; format: cell-based; conditions: 0-50 µM overnight, OD 600, n = 3
Procedure: as §1, §2, §3

[5] = test system: methicillin-resistant Staphylococcus aureus strain USA300; format: cell-based; conditions: MIC comparison with parent (MIC 25 μM); 18 h
Description: Since LL-34 was the minimal truncation mutant of LL-37 that retained both antimicrobial and immune modulatory activity, we prepared a series of synthetic peptides with sequential substitutions of alanine at each amino acid position of the LL-34 parent peptide (Table 1). We compared the minimum inhibitory concentration (MIC) for the LL-34 parent peptide and the alanine mutants (LL-34 peptides—L1A and R34A) against methicillin-resistant Staphylococcus aureus strain USA300 (Fig. 1A). LL-34 peptides were incubated at concentrations of 0 to 100 μM with bacteria. The minimal concentration at which no growth was observed was noted after 18 h of incubation. […] Because of these changes in the MIC against S. aureus between the mutants, we investigated the effective toxicity profile of the peptides in normal human epidermal keratinocytes (NHEKs) by lactate dehydrogenase (LDH) release assay (Table 1). […] Most other peptides were cytotoxic at a minimal concentration of 10 μM, whereas LL-34—K15A was toxic at a concentration of 2.5 μM.
as §2

Structure (SMILES) | Minimal cytotoxic concentration in NHEK (LD50) [1] | IL-6 protein secretion, cotreatment with U1 dsRNA, vs U1 dsRNA + LL-34 parent [2] | Gene expression of IL6, IFNB1, and CXCL10, cotreatment with U1 dsRNA [3] | Gene expression of TSLP, peptide alone [3] | Basal expression of IL6, IFNB1, and CXCL10, peptide alone [3] | Capacity to inhibit growth of Gram-positive bacteria [4] | Action against Gram-negative E. coli (Escherichia coli) | Antimicrobial potency against S. aureus USA300 compared with LL-34 parent peptide [5]
CC[C@H](C)[C@H](NC(=O)[C@H](CCCCN)NC(=O)[C@H](CCC(=O)O)NC(=O)[C@H](CCCCN)NC(=O)[C@H](CO)NC(=O)[C@H](CCCCN)NC(=O)[C@H](CCCNC(=N)N)NC(=O)[C@H](Cc1ccccc1)NC(=O)[C@H](C)NC(=O)[C@H](CC(=O)O)NC(=O)CNC(=O)[C@H](CC(C)C)NC(=O)[C@@H](N)CC(C)C)C(=O)NCC(=O)N[C@@H](CCCCN)C(=O)N[C@@H](CCC(=O)O)C(=O)N[C@@H](Cc1ccccc1)C(=O)N[C@@H](CCCCN)C(=O)N[C@@H](CCCNC(=N)N)C(=O)N[C@H](C(=O)N[C@H](C(=O)N[C@@H](CCC(N)=O)C(=O)N[C@@H](CCCNC(=N)N)C(=O)N[C@H](C(=O)N[C@@H](CCCCN)C(=O)N[C@@H](CC(=O)O)C(=O)N[C@@H](Cc1ccccc1)C(=O)N[C@@H](CC(C)C)C(=O)N[C@@H](CCCNC(=N)N)C(=O)N[C@@H](CC(N)=O)C(=O)N[C@@H](CC(C)C)C(=O)N[C@H](C(=O)N1CCC[C@H]1C(=O)N[C@@H](CCCNC(=N)N)C(=O)O)C(C)C)[C@@H](C)CC)C(C)C)[C@@H](C)CC [LL-34—F5A] (H-LLGDAFRKSKEKIGKEFKRIVQRIKDFLRNLVPR-OH) | 10 µM | reduced secretion of IL-6 protein | reduction in gene expression | increased gene expression of TSLP | not affected | increased capacity to inhibit growth of most of the tested Gram-positive bacteria | little action | 
CC[C@H](C)[C@H](NC(=O)[C@H](CCCCN)NC(=O)[C@H](CCC(=O)O)NC(=O)[C@H](CCCCN)NC(=O)[C@H](CO)NC(=O)[C@H](CCCCN)NC(=O)[C@H](CCCNC(=N)N)NC(=O)[C@H](Cc1ccccc1)NC(=O)[C@H](Cc1ccccc1)NC(=O)[C@H](CC(=O)O)NC(=O)CNC(=O)[C@H](CC(C)C)NC(=O)[C@@H](N)CC(C)C)C(=O)NCC(=O)N[C@@H](CCCCN)C(=O)N[C@@H](CCC(=O)O)C(=O)N[C@@H](Cc1ccccc1)C(=O)N[C@@H](CCCCN)C(=O)N[C@@H](CCCNC(=N)N)C(=O)N[C@H](C(=O)N[C@H](C(=O)N[C@@H](CCC(N)=O)C(=O)N[C@@H](CCCNC(=N)N)C(=O)N[C@H](C(=O)N[C@@H](CCCCN)C(=O)N[C@@H](CC(=O)O)C(=O)N[C@@H](C)C(=O)N[C@@H](CC(C)C)C(=O)N[C@@H](CCCNC(=N)N)C(=O)N[C@@H](CC(N)=O)C(=O)N[C@@H](CC(C)C)C(=O)N[C@H](C(=O)N1CCC[C@H]1C(=O)N[C@@H](CCCNC(=N)N)C(=O)O)C(C)C)[C@@H](C)CC)C(C)C)[C@@H](C)CC [LL-34—F27A] (H-LLGDFFRKSKEKIGKEFKRIVQRIKDALRNLVPR-OH) | 10 µM | reduced secretion of IL-6 protein | reduction in gene expression | increased gene expression of TSLP | not affected | increased capacity to inhibit growth of most of the tested Gram-positive bacteria | little action | 
CC[C@H](C)[C@H](NC(=O)[C@H](C)NC(=O)[C@H](CCC(=O)O)NC(=O)[C@H](CCCCN)NC(=O)[C@H](CO)NC(=O)[C@H](CCCCN)NC(=O)[C@H](CCCNC(=N)N)NC(=O)[C@H](Cc1ccccc1)NC(=O)[C@H](Cc1ccccc1)NC(=O)[C@H](CC(=O)O)NC(=O)CNC(=O)[C@H](CC(C)C)NC(=O)[C@@H](N)CC(C)C)C(=O)NCC(=O)N[C@@H](CCCCN)C(=O)N[C@@H](CCC(=O)O)C(=O)N[C@@H](Cc1ccccc1)C(=O)N[C@@H](CCCCN)C(=O)N[C@@H](CCCNC(=N)N)C(=O)N[C@H](C(=O)N[C@H](C(=O)N[C@@H](CCC(N)=O)C(=O)N[C@@H](CCCNC(=N)N)C(=O)N[C@H](C(=O)N[C@@H](CCCCN)C(=O)N[C@@H](CC(=O)O)C(=O)N[C@@H](Cc1ccccc1)C(=O)N[C@@H](CC(C)C)C(=O)N[C@@H](CCCNC(=N)N)C(=O)N[C@@H](CC(N)=O)C(=O)N[C@@H](CC(C)C)C(=O)N[C@H](C(=O)N1CCC[C@H]1C(=O)N[C@@H](CCCNC(=N)N)C(=O)O)C(C)C)[C@@H](C)CC)C(C)C)[C@@H](C)CC [LL-34—K12A] (H-LLGDFFRKSKEAIGKEFKRIVQRIKDFLRNLVPR-OH) | 5 µM | reduced secretion of IL-6 protein |  |  |  |  |  | reduced MIC compared with the parent peptide
